# Read-outs that look alike come from different tables or passages of the source.
# How the values were obtained:
# [1] = test system: site IQf in complex I; assay: Amplex UltraRed assay of superoxide/hydrogen peroxide production during forward electron transport (glycerol 3-phosphate plus 50 µM glutamate plus malate); assay type: biochemical, rat
# Procedure: Cuvette- and plate-based assays of superoxide/hydrogen peroxide production during RET using 12.5 mM G3P (or during FET using 12.5 mM G3P, 50 µM glutamate plus 50 µM malate) as substrate were conducted at 37°C as described [45] using 0.2 mg of mitochondrial protein/ml in 3 ml (plastic cuvettes, Varian Cary Eclipse spectrofluorometer (Ex 560 nm/Em 590 nm)) or 0.2 mg mitochondrial protein/ml, 0.01 mg/well (Pherastar FS (BMG) fluorescence microplate reader, Ex 540 nm/Em 590 nm), in KHEB medium (120 mM KCl, 3 mM HEPES, 1 mM EGTA, 0.3% w/v bovine serum albumin, pH 7.4) containing 25 U/ml SOD1, 25 µM Amplex Ultrared, and 5 U/ml HRP, plus dimethyl sulfoxide (DMSO) or treatments as indicated.
# [2] = test system: isolated rat skeletal muscle mitochondria; assay type: biochemical
# Procedure: Mitochondria were immobilised in coverglass-bottomed 96-well microplates (Greiner Sensoplate) by centrifugation for 15 min at 1000 g in KHEB medium at 4°C. The microplate was warmed in the 37°C heated environment chamber of a Nikon Eclipse Ti-PFS fully motorised wide-field fluorescence microscope equipped with a Lambda 821 LED light source with Lambda 10-3 emission filter wheel and Andor iXon Life 888 EMCCD camera, controlled by NIS Elements 5.20. TMRM (100 nM) was added to the wells, and in successive additions substrates were added without changing the TMRM concentration. TMRM was imaged using a Super Fluor 40× NA1.3 oil lens, a 586/20 nm excitation filter on a 560 nm LED, a 593 nm dichroic mirror, and a 641/75 nm emission filter capturing the centre 512 × 512 pixels area of the camera with no binning and with 1.5× optical zoom (0.17 µm/pixel resolution). Multiple (typically 25) view fields were recorded in one to three wells for 3 time points per substrate condition. In some experiments, TMRM imaging was followed by recording frames of NAD(P)H autofluorescence in the same view fields using a 340 nm LED, 414 nm dichroic mirror and 460/80 nm emission filter. The first autofluorescence frame matched the substrate condition of the last TMRM frame and then the recording of three more frames followed the application of rotenone (4 µM) or FCCP (4 µM) by 1 min delay. Recordings were analysed in Image Analyst MKII 4.2.1 (Image Analyst Software, Novato, CA) by performing image registration, background subtraction and ROI-based intensity measurement. Background was subtracted first as a blank image and then frame-by-frame using the ‘Mean of pixels below percentile of max projection (dilated mask)' method. Single-mitochondria ROIs were generated by morphological segmentation using a modification of the ‘Mitochondria : cell volume fractionator (basic)' standard pipeline. ΔψM was calculated using the Nernst equation. Because fluorescence was small in the absence of substrates, polarisation by G + M was calculated from TMRM fluorescence intensities (FTMRM) by comparison to succinate as 61 mV × log(FTMRM_G + M/FTMRM_succinate), which expresses how much less polarisation was provided by G + M than succinate, in millivolts. Polarisation by G3P was calculated by comparison to G + M as 61 mV × log(FTMRM_G3P/FTMRM_G + M), which expresses the millivolts hyperpolarisation when G3P is added in the presence of G + M. Changes in NAD(P)H autofluorescence (ΔNADH) were expressed as the observed fluorescence intensity change normalised to the population mean fluorescence before rotenone (or FCCP) addition. […] This was then converted to log2-fold changes to provide symmetrical distributions. Scatter plots were generated and analysed in Mathematica 13 (Wolfram Research).
# [3] = test system: Fa2N-4 cells; assay: NAD(P)H autofluorescence two-photon imaging, single-cell analysis; assay type: cell-based
# Procedure: Subcellular resolution micrographs of NAD(P)H autofluorescence were recorded using an upright Zeiss LSM 7MP multiphoton microscope, equipped with a Chameleon Vision II mode-locked laser set to 710 nm (1–1.5% of the 745 mW output power was used) and W Plan-Apochromat 20×/1.0 DIC M27 75 mm dipping water immersion objective lens and detection of emission between 420 and 480 nm. 1024 × 1024 pixels images (0.2 µm/pixel) were recorded at maximal scan speed and 8× frame averaging. Time courses of two frames, one before and one after the addition of rotenone (2 µM), FCCP (4 µM) or vehicle (DMSO 1 : 2000) were recorded using the Zeiss Multi Time Series macro. The cell monolayer was auto-focused at one x,y-position, and four other positions were imaged for analysis in each dish. Recordings were analysed in Image Analyst by rigid image registration, background subtraction and ROI-based intensity measurement. Unbiased single-cell ROIs were generated in using Cellpose 2.0 [48] with the ‘cyto2' neural network. Histograms were generated in Mathematica.
# [4] = test system: Fa2N-4 cells; assay: Subcellular analysis of NAD(P)H autofluorescence (mitochondria within cells); assay type: cell-based; conditions: rotenone challenge
# Procedure: The NAD(P)H autofluorescence multiphoton time courses described above were de-noised by Wiener filtering, cropped based on the Cellpose ROIs resulting in 256 × 256 pixels images of single cells, and surrounding structures were masked in Image Analyst MKII. Then, to compensate for the motility of mitochondria during the time courses, B-spline-based deformable image registration was performed in Elastix 5.0.1 [49]. Image registration was quality controlled subjectively plus by calculating Pearson’s cross-correlation coefficient between before- and after-rotenone frames, and cells with a value lower than 0.6 were discarded. The pixel-by-pixel ratio of after- over before-treatment frames was calculated, masked by mitochondrial profiles generated by Otsu’s threshold method (with a logical OR of before- and after-frames), and log2 of the ratios was taken for all pixels. Image histograms were saved to Excel and analysed in Mathematica using a maximum log-likelihood method for fitting the binned log2-fold intensity values with normal distribution(s). Mock treatments were fitted well with a single, symmetric distribution. We attribute this change of pixel intensities between the consecutive frames of the time course to motility artefacts and noise. The distribution of log2-fold pixel intensity changes for rotenone-treated cells was wider, and therefore we coarsely modelled it as sum of two normal distributions (rotenone-responsive and unresponsive mitochondria, with σ matching that of the mock-treatment modelling motility and noise effects). […] This analysis was repeated for individual single cells (total 185 in three experiments).
# [5] = test system: rat skeletal muscle mitochondria; assay: Respiration of isolated mitochondria on glycerol 3-phosphate (Seahorse extracellular flux analyzer); assay type: biochemical; conditions: 1–10 µM; in the presence of ADP; n = 2–3
# Procedure: Mitochondrial respiration was assayed at 37°C using an Agilent Seahorse XFe-24 as described previously, using 12.5 mM G3P as substrate.
# [6] = plate-reader titrations, IQf versus IQr, 2 µM atpenin A5, 10 µM S3QEL3
# [7] = rotenone 4 µM challenge, 50 µM G + M plus 12.5 mM G3P
compound,measurement,setting,value
N#CC(C#N)=NNc1ccc(OC(F)(F)F)cc1 [FCCP],Sensitivity of superoxide/hydrogen peroxide production from site IQf compared with site IQr,[1],equally sensitive
same,Mitochondria responding with significant oxidation of NADH,[2],85 ± 2%
same,Cells responding with a decrease in NAD(P)H autofluorescence,[3]; FCCP 4 µM,All cells
CO[C@@H]1C[C@@H](C[C@H]2CC[C@H](C)[C@H]([C@@H](C)C(=O)O)O2)O[C@]2(O[C@](C)([C@H]3CC[C@@](C)([C@@H]4O[C@@H]([C@H]5O[C@@](O)(CO)[C@H](C)C[C@@H]5C)C[C@@H]4C)O3)C[C@H]2C)[C@@H]1C [nigericin],Sensitivity of superoxide/hydrogen peroxide production from site IQf compared with site IQr,[1]; [6],equally sensitive
C=C(C)[C@H]1Cc2c(ccc3c2O[C@@H]2COc4cc(OC)c(OC)cc4[C@@H]2C3=O)O1 [rotenone],Cellular mitochondria oxidising on challenge (excess pixel count),[4]; n = 3,0.5 ± 0.1%
same,Mitochondria in cells estimated to respond poorly or not at all,"[4]; n = 3 experiments, 185 cells",26 ± 3%
same,Mitochondria in cells that responded with increased fluorescence,"[4]; n = 3 experiments, 185 cells",74 ± 3%
same,Mean increase in NAD(P)H fluorescence intensity of responding mitochondria,[4]; responder population,50 ± 10%
same,Sensitivity of superoxide/hydrogen peroxide production from site IQf compared with site IQr,[1]; [6],equally sensitive
same,Mitochondria responding by significantly increasing the reduction of their NADH/NAD+ pool,[2]; [7],65%
same,Mitochondria that did not change NAD(P)H fluorescence significantly,[2]; [7],30 ± 9%
same,Mitochondria responding by significant oxidation of NADH to NAD+,"[2]; rotenone 4 µM challenge, 50 µM G + M plus 12.5 mM G3P, n = 4",4.2 ± 1.1%
same,Cells responding with an increase in NAD(P)H autofluorescence,"[3]; rotenone challenge (4 µM in legend, 2 µM in methods), n = 4",97 ± 4%
C/C=C(\C)[C@H](O)[C@H](C)/C=C(C)/C=C/C/C(C)=C/Cc1nc(OC)c(OC)c(O)c1C [piericidin A],Superoxide/hydrogen peroxide production by site IQf at highest concentration,"[1]; 10 µM, plate-reader",IQf activity reappeared
same,Sensitivity of superoxide/hydrogen peroxide production from site IQf compared with site IQr,[1]; [6],equally sensitive
COc1[nH]c(=O)c(C(=O)[C@@H](C)C[C@H](C)[C@@H](Cl)CCl)c(O)c1OC [atpenin A5],Effect on respiration on 12.5 mM G3P,[5],no significant effect
